Data: patent publication US20090253634A1, “Methods and Compositions for the Treatment of Gastrointestinal Disorders” (MICROBIA, INC., priority 2005, published 2009)
Ends that are not written are not given here.

Columns and labels:
intestinal GC-C receptor = target: T1, intestinal GC-C receptor (Homo sapiens, UniProt P25092); test: GC-C receptor activity assay (cyclic GMP) in T84 cells; assay type: cell-based; conditions: chemically synthesized peptides, cyclic GMP by EIA
T1 construct: monolayers of T84 cells in 24-well plates; host or cells: T84 human colon carcinoma cells
Experimental: The ability of SEQ ID NO:5, SEQ ID NO:4, SEQ ID NO:3, and SEQ ID NO:6 to activate the intestinal GC-C receptor was assessed in an assay employing the T84 human colon carcinoma cell line (American Type Culture Collection (Bethesda, Md.)). For the assays cells were grown to confluency in 24-well culture plates with a 1:1 mixture of Ham's F12 medium and Dulbecco's modified Eagle's medium (DMEM), supplemented with 5% fetal calf serum and were used at between passages 54 and 60.
Briefly, monolayers of T84 cells in 24-well plates were washed twice with 1 ml/well DMEM, then incubated at 37° C. for 10 min with 0.45 ml DMEM containing 1 mM isobutylmethylxanthine (IBMX), a cyclic nucleotide phosphodiesterase inhibitor, Test peptides (50 μl) were then added and incubated for 30 minutes at 37° C. The media was aspirated and the reaction was then terminated by the addition of ice cold 0.5 ml of 0.1N HCl. The samples were held on ice for 20 minutes and then evaporated to dryness using a heat gun or vacuum centrifugation.

gastrointestinal transit = test: murine gastrointestinal transit (GIT) assay, acute and chronic dosing; assay type: in vivo, mice; conditions: for gastrointestinal transit rate: oral, SEQ ID NO:4 and Zelnorm 0.1 mg/kg, FIG. 3a, 3b; for intestinal transit rate, dose dependence: recombinantly synthesized peptides, FIG. 4a
Experimental: In order to determine whether the peptides increase the rate of gastrointestinal transit, the peptides and controls were tested using a murine gastrointestinal transit (GIT) assay (Moon et al. Infection and Immunity 25:127, 1979). In this assay, charcoal, which can be readily visualized in the gastrointestinal tract is administered to mice after the administration of a test compound. The distance traveled by the charcoal is measured and expressed as a percentage of the total length of the […].
Mice were fasted with free access to water for 12 to 16 hours before the treatment with peptide or control buffer. The peptides were orally administered at 1 μg/kg-1 mg/kg of peptide in buffer ([…] pH 7.5) 7 minutes before being given an oral dose of 5% Activated Carbon (Aldrich 242276-250G). Control mice were administered buffer only before being given a dose of Activated Carbon. After 15 minutes, the mice were sacrificed and their intestines from the stomach to the cecum were dissected. The total length of the intestine as well as the distance traveled from the stomach to the charcoal front was measured for each animal and the results are expressed as the percent of the total length of the intestine traveled by the charcoal front. All results are reported as the average of 10 mice±standard deviation. A comparison of the distance traveled by the charcoal between the mice treated with peptide versus the mice treated with vehicle alone was performed using a Student's t test and a statistically significant difference was considered for P<0.05. P-values are calculated using a two-sided T-Test assuming unequal variances.
The identical experiment was performed to determine if SEQ ID NO:3 is effective in a chronic dosing treatment regimen. Briefly, 8 week old CD1 female mice are dosed orally once a day for 5 days with either SEQ ID NO:3 (0.06 mg/kg or 0.25 mg/kg in 20 mM Tris pH 7.5) or vehicle alone (20 mM Tris pH 7.5). On the 5th day, a GIT assay is performed identical to that above except 200 μl of a 10% charcoal solution is administered. […] The results are shown side by side with acute dosing (1 day).

intestinal secretion = test: suckling mouse model of intestinal secretion (SuMi assay); assay type: in vivo, suckling mice
Experimental: In this model a test compound is administered to suckling mice that are between 7 and 9 days old. After the mice are sacrificed, the gastrointestinal tract from the stomach to the cecum is dissected (“guts”). The remains (“carcass”) as well as the guts are weighed and the ratio of guts to carcass weight is calculated. If the ratio is above 0.09, one can conclude that the test compound increases intestinal secretion. […] The effect of Zelnorm® was also studied.

[1] = target: T2, GC-C receptors found in rat intestinal mucosa (Rattus norvegicus, UniProt P23897); conditions: same assay, observed by Giannella et al.; cited from earlier work
T2 construct: Epithelial cells from the small intestine of rats were obtained; from tissue; host or cells: rat small-intestinal mucosa / epithelial cell suspension
T2 sequence (P23897 23-1072): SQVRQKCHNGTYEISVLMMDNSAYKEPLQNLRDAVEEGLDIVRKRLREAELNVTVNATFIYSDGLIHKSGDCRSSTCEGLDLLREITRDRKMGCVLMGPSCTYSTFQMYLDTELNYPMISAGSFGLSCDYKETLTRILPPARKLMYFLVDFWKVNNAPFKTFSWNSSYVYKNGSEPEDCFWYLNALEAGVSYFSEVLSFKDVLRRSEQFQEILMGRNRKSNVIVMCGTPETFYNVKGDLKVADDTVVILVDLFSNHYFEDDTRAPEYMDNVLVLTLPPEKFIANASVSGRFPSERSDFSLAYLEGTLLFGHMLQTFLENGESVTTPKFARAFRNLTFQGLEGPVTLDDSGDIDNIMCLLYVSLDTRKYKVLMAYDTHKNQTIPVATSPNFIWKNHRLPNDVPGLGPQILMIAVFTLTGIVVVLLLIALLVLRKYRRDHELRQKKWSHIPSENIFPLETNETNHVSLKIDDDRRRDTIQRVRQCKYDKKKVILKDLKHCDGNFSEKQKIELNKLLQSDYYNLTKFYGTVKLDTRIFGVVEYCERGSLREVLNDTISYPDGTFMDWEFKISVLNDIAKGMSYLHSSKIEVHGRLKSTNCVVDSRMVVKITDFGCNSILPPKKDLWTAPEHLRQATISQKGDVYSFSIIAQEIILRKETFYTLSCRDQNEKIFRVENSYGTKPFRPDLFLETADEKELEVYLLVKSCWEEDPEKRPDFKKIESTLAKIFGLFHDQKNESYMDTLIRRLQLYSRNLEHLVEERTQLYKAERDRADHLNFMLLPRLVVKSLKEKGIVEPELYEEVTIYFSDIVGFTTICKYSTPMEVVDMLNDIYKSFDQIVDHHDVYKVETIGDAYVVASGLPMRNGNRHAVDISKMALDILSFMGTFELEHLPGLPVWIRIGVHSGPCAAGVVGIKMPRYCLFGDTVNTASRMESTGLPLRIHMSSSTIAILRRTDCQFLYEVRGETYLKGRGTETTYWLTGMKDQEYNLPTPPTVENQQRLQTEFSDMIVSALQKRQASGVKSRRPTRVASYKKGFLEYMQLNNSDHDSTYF

PBQ-induced writhing = test: phenylbenzoquinone (PBQ)-induced writhing model
[2] = recombinant peptides, dose response, FIG. 6a

T1 sequence (P25092 24-1073): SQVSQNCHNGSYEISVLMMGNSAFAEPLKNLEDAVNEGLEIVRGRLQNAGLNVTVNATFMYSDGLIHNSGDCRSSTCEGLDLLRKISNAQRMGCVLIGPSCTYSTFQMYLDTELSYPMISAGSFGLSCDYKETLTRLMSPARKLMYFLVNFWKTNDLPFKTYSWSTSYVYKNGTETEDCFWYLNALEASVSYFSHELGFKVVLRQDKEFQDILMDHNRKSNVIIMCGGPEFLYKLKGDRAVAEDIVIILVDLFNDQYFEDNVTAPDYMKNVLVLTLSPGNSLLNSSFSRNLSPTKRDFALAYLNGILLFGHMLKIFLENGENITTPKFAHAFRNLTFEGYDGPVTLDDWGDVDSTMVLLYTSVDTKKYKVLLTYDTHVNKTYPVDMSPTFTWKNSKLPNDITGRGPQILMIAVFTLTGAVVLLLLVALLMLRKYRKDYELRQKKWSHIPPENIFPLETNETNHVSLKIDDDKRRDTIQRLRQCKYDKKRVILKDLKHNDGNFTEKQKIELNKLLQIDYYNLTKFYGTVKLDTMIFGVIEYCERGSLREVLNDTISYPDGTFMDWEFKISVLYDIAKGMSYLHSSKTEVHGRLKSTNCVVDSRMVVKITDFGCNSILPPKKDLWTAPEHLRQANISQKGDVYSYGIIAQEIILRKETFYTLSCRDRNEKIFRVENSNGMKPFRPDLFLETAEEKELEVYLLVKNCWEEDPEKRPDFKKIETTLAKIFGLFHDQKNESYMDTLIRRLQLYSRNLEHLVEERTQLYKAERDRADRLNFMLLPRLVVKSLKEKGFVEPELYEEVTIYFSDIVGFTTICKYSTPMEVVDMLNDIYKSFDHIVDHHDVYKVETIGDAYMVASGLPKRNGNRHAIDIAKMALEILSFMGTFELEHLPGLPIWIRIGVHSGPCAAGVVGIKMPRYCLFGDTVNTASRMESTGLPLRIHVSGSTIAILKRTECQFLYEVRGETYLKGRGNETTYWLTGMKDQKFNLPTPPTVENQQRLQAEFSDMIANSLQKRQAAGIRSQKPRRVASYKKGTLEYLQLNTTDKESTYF

Compound	activity in GC-C receptor activity assay (intestinal GC-C receptor)	intestinal transit rates versus Tris buffer or equivalent dose of Zelnorm (gastrointestinal transit; acute, chemically synthesized peptides, FIG. 4b)	gastrointestinal transit rate (gastrointestinal transit; acute)	intestinal transit rate, dose dependence (gastrointestinal transit; acute)	intestinal secretion (guts to carcass weight ratio) (intestinal secretion; dose response, wild-type ST purchased from TDT, FIG. 5a, 5b)	intestinal secretion (guts to carcass weight ratio) (intestinal secretion; [2])	Kd [1] [nM]	effect in mouse gastrointestinal motility assay upon chronic dosing (gastrointestinal transit; oral once a day for 5 days, SEQ ID NO:3 0.06 or 0.25 mg/kg, FIG. 4c)	intestinal secretion (guts to carcass weight ratio) (intestinal secretion; 0.2 mg/kg)	writhings versus vehicle control (PBQ-induced writhing; 1 mg/kg dose, oral)	antinociceptive effect compared with indomethacin (PBQ-induced writhing; PBQ writhing assay)
NSSNYCCELCCNPACTGCY [SEQ ID NO:4]	activity comparable to SEQ ID NO:4	increase intestinal transit rates more than either Tris buffer alone or an equivalent dose of Zelnorm®	increase gastrointestinal transit rate	increases with an increasing dosage	increase intestinal secretion	increase intestinal secretion	~13				
[H]/N=C(/NCCCCC)N/N=C/c1c[nH]c2ccc(OC)cc12 [Zelnorm®, tegaserod]			increase gastrointestinal transit rate					effective	does not increase intestinal secretion		
NSSNYCCEYCCNPACTGCY (cysteine pairing not given here) [SEQ ID NO:5]				increases with an increasing dosage		increase intestinal secretion				Significant reductions in writhings	antinociceptive effects in this visceral pain model comparable to the intermediate doses of indomethacin
